Results as given in patent US8513161B2, “Enhancement of plant growth” (Valent Biosciences Corporation, priority 2007, dated 2013).
Where a name gives a salt, the structure may show the parent alone.

What was measured:
cotton [1] = experiment: Pouch assay of cotton after PESA salt and clothianidin seed treatments; format: in vivo; details: seed treatment; for shoot length of cotton: control 3.7; for root length of cotton: control 9.6
Protocol: (§1) Seed was sieved with a screen of hole size appropriate to remove broken seeds and small trash. Cracked or otherwise damaged seeds were removed. The seed was well mixed, and 50 g samples were weighed into small plastic trays. Seed treatment slurries were made by adding measured amounts of the active ingredients to sufficient water to bring them up to a standard volume, typically 2 ml. A fungicide (Maxim XL; Syngenta Agricultural Products, Greensboro, N.C.), a polymeric binder (CF-Clear; Becker-Underwood, Ames, Iowa), and a colorant (Color Coat Red; Becker-Underwood, Ames, Iowa) were also included in the slurry at label rates. A small aliquot of this slurry was applied to the seed using the Hege 11 coater (Wintersteiger, Salt Lake City, Utah) with a six-inch bowl. The slurry was deposited drop-wise on the spinning disk atomizer using a syringe.
(§2) Seeds were placed in germination pouches consisting of germination paper hydrated with sterile water that was an insert in a gas-permeable 16×14 cm plastic pouch (CYG Pouch; Mega International, St. Paul, Minn.). In these examples, in pouch solution evaluation, clothianidin and PESA sodium salt were added to the sterile water in the pouch. Alternatively, imidacloprid or dinotefuran and PESA sodium salt were added to the sterile water in the pouch. The pouches were arranged in a completely randomized block design in growth racks and placed in 19-liter polycarbonate food storage containers (Rubbermaid Commercial Products, Winchester, Va.). The sealed containers were held in an upright growth cabinet maintained at 25 C with a 12 hour light: 12 hour dark photoperiod. After 6 days, the containers were removed from the growth cabinet, and the lengths of the roots and shoot were measured.

cotton [2] = experiment: Continuous exposure pouch study, PESA salt and clothianidin on cotton; format: in vivo; details: for shoot length of cotton / root length of cotton: in pouch; for shoot length of cotton: control 6.1; for root length of cotton: control 11.4
Protocol: as §2

cotton [3] = experiment: Continuous exposure pouch study, PESA salt and imidacloprid on cotton; format: in vivo; details: for shoot length of cotton / root length of cotton: in pouch; for shoot length of cotton: control 6.2; for root length of cotton: control 13.3
Protocol: as §2, with “measured. […] Root lengths of the control and combination treatment of imidacloprid with 100 mg/liter PESA salt were similar.” for “measured.”

rice = experiment: Pouch study of rice, imidacloprid seed treatment with PESA salt solution in pouch; format: in vivo
Protocol: as §1, §2
Root lengths of the control and combination treatment of 200 grams imidacloprid/100 pounds of seed with 50 mg/liter PESA salt were similar.

soybean = experiment: Field study, seed treatment of soybean; format: in vivo; details: for average plant height of soybean: 66 days after planting, control 23.8
Protocol: (§3) For the field studies, the seed was treated with a seed treatment formulation containing clothianidin. The rate of clothianidin was dependent on the crop species. The seed treatment formulations were amended with the appropriate concentrations of either PESA or the sodium salt of PESA. Crops were planted and grown under standard agricultural practices, and evaluated at the times indicated. The sodium salt of PESA was prepared as described above, and was used in seed treatment either alone or in the presence of clothianidin. Soybean seed was treated with 0 or 50 grams of clothianidin/100 kg (220 pound) of seed and with 0, 22, 55, or 137.5 grams PESA salt/100 kg seed.

canola = experiment: Field study, seed treatment of canola; format: in vivo, Brassica napus; details: for vigor rating (1 = low and 5 = high) of canola plants: 19 days after planting, control 3.8
Protocol: as §3, with “Canola (Brassica napus)” for “Soybean”, “400” for “50”

maize = experiment: Field study, seed treatment of maize; format: in vivo, Zea mays; details: 27 days after planting, control 3.6
Protocol: For the field studies, the seed was treated with a seed treatment formulation containing clothianidin. The rate of clothianidin was dependent on the crop species. The seed treatment formulations were amended with the appropriate concentrations of either PESA or the sodium salt of PESA. Crops were planted and grown under standard agricultural practices, and evaluated at the times indicated. The PESA or the sodium salt of PESA was prepared as described above, and was used in seed treatment either alone or in the presence of clothianidin. Maize (Zea mays) seed was treated with 0 or 0.25 milligrams of clothianidin/seed and with 0, 22, 55, or 137.5 grams PESA salt/100 kg seed.

[4] = PESA salt 10 g/100 pounds of seed alone
[5] = PESA salt 25 g/100 pounds of seed alone
[6] = sodium salt of PESA 22 g/100 kg seed alone
[7] = sodium salt of PESA 55 g/100 kg seed alone
[8] = sodium salt of PESA 137.5 g/100 kg seed alone

O=C(O)CCC(=O)NCCc1ccccc1 [PESA salt]
effect on cotton shoot length (cotton [1]; Table 2): increased cotton shoot length
safening of cotton (cotton [1]; conclusion from Table 1): safened cotton against clothianidin-induced root growth inhibition
shoot length of cotton (cotton [1]; [4]): 4.3 cm
root length of cotton (cotton [1]; [4]): 8.8 cm
shoot length of cotton (cotton [1]; [5]): 4.3 cm
root length of cotton (cotton [1]; [5]): 10.6 cm
safening of cotton (cotton [2]; continuous exposure pouch, conclusion from Table 3): safened cotton against clothianidin-induced root growth inhibition
effect on cotton root length (cotton [2]; continuous exposure pouch, substance alone): increased root length in a dose-dependent manner
effect on cotton shoot length (cotton [2]; continuous exposure pouch, 300 mg/liter PESA salt alone): reduced
shoot length of cotton (cotton [2]; PESA salt 10 mg/liter alone): 6.3 cm
root length of cotton (cotton [2]; PESA salt 10 mg/liter alone): 14.2 cm
shoot length of cotton (cotton [2]; PESA salt 30 mg/liter alone): 6.1 cm
root length of cotton (cotton [2]; PESA salt 30 mg/liter alone): 15.3 cm
shoot length of cotton (cotton [2]; PESA salt 100 mg/liter alone): 6.0 cm
root length of cotton (cotton [2]; PESA salt 100 mg/liter alone): 16.2 cm
shoot length of cotton (cotton [2]; PESA salt 300 mg/liter alone): 5.4 cm
safening of cotton (cotton [3]; conclusion from Table 5): safened cotton against imidacloprid-induced root growth inhibition
shoot length of cotton (cotton [3]; PESA salt 10 mg/liter alone): 6.2 cm
root length of cotton (cotton [3]; PESA salt 10 mg/liter alone): 14.6 cm
shoot length of cotton (cotton [3]; PESA salt 30 mg/liter alone): 6.0 cm
root length of cotton (cotton [3]; PESA salt 30 mg/liter alone): 16.9 cm
shoot length of cotton (cotton [3]; PESA salt 100 mg/liter alone): 6.0 cm
root length of cotton (cotton [3]; PESA salt 100 mg/liter alone): 16.5 cm
shoot length of cotton (cotton [3]; PESA salt 300 mg/liter alone): 5.7 cm
root length of cotton (cotton [3]; PESA salt 300 mg/liter alone): 11.9 cm
shoot length of rice (rice; PESA salt 50 mg/liter in pouch alone, control 3.3): 3.6 cm
root length of rice (rice; PESA salt 50 mg/liter in pouch alone, control 10.7): 12.0 cm
safening of rice (rice; conclusion from Table 7): safened, rice against imidacloprid-induced root growth inhibition
average plant height of soybean (soybean; [6]): 23.8 inches
average plant height of soybean (soybean; [7]): 23.5 inches
average plant height of soybean (soybean; [8]): 23.2 inches
safening of soybean (soybean; conclusion from Table 9): safened soybean against clothianidin-induced root growth inhibition
vigor rating (1 = low and 5 = high) of canola plants (canola; [6]): 3.8
vigor rating (1 = low and 5 = high) of canola plants (canola; [7]): 4
vigor rating (1 = low and 5 = high) of canola plants (canola; [8]): 4
safening of canola (canola; conclusion from Table 11): safened canola against clothianidin-induced vigor reduction
vigor rating of maize plants, Vigor (1-5) (maize; PESA sodium salt 22 g/100 kg seed alone): 3.8
vigor rating of maize plants, Vigor (1-5) (maize; PESA sodium salt 55 g/100 kg seed alone): 3.5
vigor rating of maize plants, Vigor (1-5) (maize; PESA sodium salt 137.5 g/100 kg seed alone): 3.4
